Laboratory results from paper PMC6315490, “Angucycline Glycosides from an Intertidal Sediments Strain Streptomyces sp. and Their Cytotoxic Activity against Hepatoma Carcinoma Cells” (Marine Drugs, 2018).
“Also recorded” adds a separate entry of the source.

Key:
Format in all cases: cell-based
[1] = test system: hepatoma carcinoma HepG-2 cells; assay: MTT cytotoxicity assay, HepG-2; details: Homo sapiens, HepG2, MTT method
Experimental: (§1) Though, the distinct in vivo toxicity restricted the further development of these compounds to be clinical drugs. Recently, an atypical angucycline, lomaiviticin A, was reported to be under preclinical evaluation for antitumor treatment due to its prominent cytotoxicity and effects of inducing double-strand breaks in DNA [14, 23]. In present work, 1–4 were assayed for their cytotoxic activity against normal liver cell LO2, hepatoma carcinoma HepG-2, SMMC-7721 and plc-prf-5 cell lines by 3-(4,5-dimethylthiazol-2-yl)-2,5-diphenyltetrazolium bromide (MTT) method (Table 2).
(§2) The cytotoxicity evaluations of 1–4 against normal liver cell and hepatoma carcinoma cells were carried out using the 3-(4,5-dimethylthiazole-2-yl)-2,5-diphenyltetrazolium bromide (MTT) assay. Doxorubicin was used as positive control drug and deionized H2O with the same DMSO concentration was used as parallel control. DAPI staining test was employed to qualitatively observe apoptosis, and the apoptotic ratio was measured by flow cytometric analysis (Becton Dickinson FACScan, San Jose, CA, USA). These tests were conducted using the methods as previously described.

[2] = test system: hepatoma carcinoma SMMC-7721 cells; assay: MTT cytotoxicity assay, SMMC-7721; details: Homo sapiens, MTT method
Experimental: as §1, §2

[3] = MTT cytotoxicity assay, normal liver cell LO2; details: human; MTT method; LO2 normal liver cells
Experimental: as §1, §2

[4] = test system: hepatoma carcinoma plc-prf-5 cells; assay: MTT cytotoxicity assay, plc-prf-5; details: Homo sapiens, MTT method
Experimental: as §1, §2

SMMC-7721 cells [5] = assay: DAPI staining test for apoptosis; details: 0.025 to 0.100 μM for 24 h
Experimental: as §1
(§3) Figure 5 (a) Fluorescence micrographs of untreated and saquayamycin B-treated SMMC-7721 cells (24 h) stained with DAPI, Magnification: 100×; (b) Quantification of saquayamycin B-induced apoptosis in SMMC-7721 cell using flow cytometric analysis. ** p < 0.01 versus saquayamycin B 0 μM group. […]
(§4) The cytotoxicity evaluations of 1–4 against normal liver cell and hepatoma carcinoma cells were carried out using the 3-(4,5-dimethylthiazole-2-yl)-2,5-diphenyltetrazolium bromide (MTT) assay. […] DAPI staining test was employed to qualitatively observe apoptosis, and the apoptotic ratio was measured by flow cytometric analysis (Becton Dickinson FACScan, San Jose, CA, USA). […]

SMMC-7721 cells [6] = assay: Flow cytometric analysis of apoptosis; details: Figure 5b
Experimental: as §1, §3, §4

SMILES	IC50 [1]	IC50 [2]	IC50 [3]	IC50 [4]	Apoptosis by morphological characteristics in DAPI staining (SMMC-7721 cells [5])	Apoptotic ratio of SMMC-7721 cells (flow cytometry), concentration dependence (SMMC-7721 cells [6])
Cc1cc(O)c2c3c(cc(O)c2c1)C(=O)c1c(ccc(C2CC4OC5CC(=O)C(C)OC5OC4C(C)O2)c1O)C3=O (stereo not shown) [Compound 1, landomycin N]	> 40000 nM	> 40000 nM	> 40000 nM	> 40000 nM		
Cc1cc(O)c2cc3c(c(O)c2c1)C(=O)c1ccc(C2CC4OC5CC(=O)C(C)OC5OC4C(C)O2)c(O)c1C3=O (stereo not shown) [Compound 2, galtamycin C]	> 40000 nM	> 40000 nM	> 40000 nM	> 40000 nM		
CC1OC(OC2CCC(OC(C)(CC(=O)O)Cc3ccc4c(c3O)C(=O)c3ccc(C5CC6OC7CC(=O)C(C)OC7OC6C(C)O5)c(O)c3C4=O)OC2C)C=CC1=O (stereo not shown) [Compound 3, vineomycin D]	> 40000 nM	> 40000 nM	> 40000 nM	> 40000 nM		
CC1OC(OC2CCC(OC3(C)CC(=O)C4(O)C5=C(C=CC4(O)C3)C(=O)c3c(ccc(C4CC6OC7CC(=O)C(C)OC7OC6C(C)O4)c3O)C5=O)OC2C)C=CC1=O (stereo not shown) [Compound 4, saquayamycin B]	135 ± 56 nM	33 ± 5 nM	343 ± 81 nM	244 ± 1 nM	chromatin dispersion and formation of apoptotic body; also recorded: induced apoptosis in SMMC-7721 cells	dependent on the concentrations of saquayamycin B
COc1cccc2c1C(=O)c1c(O)c3c(c(O)c1C2=O)C[C@@](O)(C(=O)CO)C[C@@H]3O[C@H]1C[C@H](N)[C@H](O)[C@H](C)O1 [Doxorubicin, reference compound]	919 ± 599 nM	706 ± 4 nM	2260 ± 160 nM	1030 ± 990 nM		
